Results taken from US11051538B2, “Plated flavor powders” (FIRMENICH SA, priority 2013, dated 2021).

Test: Transfer of volatiles via headspace from MCT flavor composition to PG plated onto MCC, cyclohexane extraction, GC/MS
Type: physicochemical
Details: for (conc in PG/conc in initial oil)*100: affinity for propylene glycol versus MCT oil or air; for (conc in PG/conc in initial oil)*100 / Avg conc in the PG: 6 days room temperature; for Avg conc in the PG / Avg conc in powder: powder 20% PG on 80% MCC; for Avg conc in powder: 6 days room temperature in closed container with MCT flavor composition, average of 2 extractions
Method: A flavor composition formulated based on a medium chain triglyceride oil (MCT, solvent A) was filled into a open beaker, and was then placed inside a closed glass container containing a powder consisting of 20% propylene glycol (PG, solvent B) plated onto 80% of microcrystalline cellulose (MCC; purchased from Sigma Aldrich). Then the system was stored in the lab at room temperature. After 6 days, a small sample of powder was removed, an extraction experiment was performed and the extract was analyzed by GC/MS. Extraction solvent: cyclohexane Internal standard: Methyloctanoate (a 6.67 mg/ml solution was prepared by dissolution in cyclohexane) 2 extractions were performed to check the reproducibility.

Compound | (conc in PG/conc in initial oil)*100 | Avg conc in the PG [ppm] | Avg conc in powder [ppm]
CCc1ncc(C)nc1C [2-ethyl-3,5-dimethylpirazine] | 12.7 | 25.4 | 6
CCc1nccnc1C [2-ethyl-3-methylpyrazine] | 39.9 | 799.0 | 200
CCC(C)C=O (stereo not drawn) [2-methyl butanal] | 6.7 | 1615.4 | 404
CSCCC=O [3-(methylthio)propanal] | 2.8 | 113.5 | 28
CC(=O)C(C)O (stereo not drawn) [acetylmethylcarbinol] | 3.9 | 156.9 | 39
CC(C)CC=O [isovalerianic aldehyde] | 9.1 | 1091.5 | 273
Decenal | 0.3 | 37.8 | 9
Dienal C10 | 1.9 | 467.4 | 117
Dienal C11 | 0.5 | 40.4 | 10
